Calls of active or inactive are those of the source. The calls are words filed in the database; no cut-off is given here.
Key:
[1] = tested on: HepG2; test: Cytotoxicity against human HepG2 cells after 48 hrs by MTT assay; assay type: functional, cell-based; settings: HepG2, 48 h
[2] = Cytotoxicity against human BGC803 cells after 48 hrs by MTT assay; assay type: functional, cell-based; settings: BGC803, 48 h
[3] = tested on: SGC-7901; test: Cytotoxicity against human SGC7901 cells after 48 hrs by MTT assay; assay type: functional, cell-based; settings: SGC-7901, 48 h
[4] = tested on: MCF7; test: Cytotoxicity against human MCF7 cells after 48 hrs by MTT assay; assay type: functional, cell-based; settings: MCF7, 48 h
[5] = tested on: HepG2; test: Effect on human HepG2 cell morphology assessed as cell elongation at 1.25 to 5 uM after 24 hrs by inverted-light microscopy; assay type: functional, cell-based
[6] = tested on: HepG2; test: Effect on human HepG2 cell morphology assessed as induction of membrane blebbing at 1.25 to 5 uM after 24 hrs by inverted-light microscopy; assay type: functional, cell-based
[7] = tested on: HepG2; test: Effect on human HepG2 cell morphology assessed as induction of cell shrinkage at 1.25 to 5 uM after 24 hrs by inverted-light microscopy; assay type: functional, cell-based
[8] = tested on: HepG2; test: Effect on human HepG2 cell morphology assessed as formation of round cells at 1.25 to 5 uM after 24 hrs by inverted-light microscopy; assay type: functional, cell-based
[9] = tested on: HepG2; test: Induction of necrosis in human HepG2 cells at 1.25 to 5 uM after 24 hrs by inverted-light microscopy; assay type: functional, cell-based
[10] = tested on: HepG2; test: Effect on human HepG2 cell morphology assessed as cell elongation at 0.5 to 2 uM after 24 hrs by inverted-light microscopy; assay type: functional, cell-based
[11] = tested on: HepG2; test: Effect on human HepG2 cell morphology assessed as induction of membrane blebbing at 0.5 to 2 uM after 24 hrs by inverted-light microscopy; assay type: functional, cell-based
[12] = tested on: HepG2; test: Effect on human HepG2 cell morphology assessed as induction of cell shrinkage at 0.5 to 2 uM after 24 hrs by inverted-light microscopy; assay type: functional, cell-based
[13] = tested on: HepG2; test: Effect on human HepG2 cell morphology assessed as formation of round cells at 0.5 to 2 uM after 24 hrs by inverted-light microscopy; assay type: functional, cell-based
[14] = tested on: HepG2; test: Induction of necrosis in human HepG2 cells at 0.5 to 2 uM after 24 hrs by inverted-light microscopy; assay type: functional, cell-based
[15] = tested on: HepG2; test: Induction of apoptosis in human HepG2 cells assessed as nuclear condensation at 1.25 to 5 uM after 24 hrs by DAPI staining-based fluorescence microscopy; assay type: functional, cell-based
[16] = tested on: HepG2; test: Induction of apoptosis in human HepG2 cells assessed as nuclear condensation at 0.5 to 2 uM after 24 hrs by DAPI staining-based fluorescence microscopy; assay type: functional, cell-based
[17] = tested on: HepG2; test: Induction of apoptosis in human HepG2 cells assessed as appearance of apoptotic bodies at 1.25 to 5 uM after 24 hrs by fluorescence microscopy; assay type: functional, cell-based
[18] = tested on: HepG2; test: Induction of apoptosis in human HepG2 cells assessed as appearance of apoptotic bodies at 0.5 to 2 uM after 24 hrs by fluorescence microscopy; assay type: functional, cell-based
[19] = tested on: HepG2; test: Induction of apoptosis in human HepG2 cells assessed as dead cells at 1.25 uM after 24 hrs using annexin-V and propidium iodide staining by flow cytometry; assay type: functional
[20] = tested on: HepG2; test: Induction of apoptosis in human HepG2 cells assessed as late apoptotic cells at 1.25 uM after 24 hrs using annexin-V and propidium iodide staining by flow cytometry; assay type: functional
[21] = tested on: HepG2; test: Induction of apoptosis in human HepG2 cells assessed as early apoptotic cells at 1.25 uM after 24 hrs using annexin-V and propidium iodide staining by flow cytometry; assay type: functional
[22] = tested on: HepG2; test: Induction of apoptosis in human HepG2 cells assessed as viable cells at 1.25 uM after 24 hrs using annexin-V and propidium iodide staining by flow cytometry; assay type: functional; settings: HepG2, 24 h, read-out: Activity
[23] = tested on: HepG2; test: Induction of apoptosis in human HepG2 cells assessed as dead cells at 2.5 uM after 24 hrs using annexin-V and propidium iodide staining by flow cytometry; assay type: functional
[24] = tested on: HepG2; test: Induction of apoptosis in human HepG2 cells assessed as late apoptotic cells at 2.5 uM after 24 hrs using annexin-V and propidium iodide staining by flow cytometry; assay type: functional
[25] = tested on: HepG2; test: Induction of apoptosis in human HepG2 cells assessed as early apoptotic cells at 2.5 uM after 24 hrs using annexin-V and propidium iodide staining by flow cytometry; assay type: functional
[26] = tested on: HepG2; test: Induction of apoptosis in human HepG2 cells assessed as viable cells at 2.5 uM after 24 hrs using annexin-V and propidium iodide staining by flow cytometry; assay type: functional; settings: HepG2, 24 h, read-out: Activity
[27] = tested on: HepG2; test: Induction of apoptosis in human HepG2 cells assessed as dead cells at 5 uM after 24 hrs using annexin-V and propidium iodide staining by flow cytometry; assay type: functional
[28] = tested on: HepG2; test: Induction of apoptosis in human HepG2 cells assessed as late apoptotic cells at 5 uM after 24 hrs using annexin-V and propidium iodide staining by flow cytometry; assay type: functional
[29] = tested on: HepG2; test: Induction of apoptosis in human HepG2 cells assessed as early apoptotic cells at 5 uM after 24 hrs using annexin-V and propidium iodide staining by flow cytometry; assay type: functional
[30] = tested on: HepG2; test: Induction of apoptosis in human HepG2 cells assessed as viable cells at 5 uM after 24 hrs using annexin-V and propidium iodide staining by flow cytometry; assay type: functional; settings: HepG2, 24 h, read-out: Activity
[31] = tested on: HepG2; test: Induction of apoptosis in human HepG2 cells assessed as decrease in Bcl-2 expression at 1.25 to 5 uM after 24 hrs; assay type: functional, cell-based
[32] = tested on: HepG2; test: Induction of apoptosis in human HepG2 cells assessed as decrease in procaspase-3 expression at 1.25 to 5 uM after 24 hrs; assay type: functional, cell-based
[33] = tested on: HepG2; test: Induction of apoptosis in human HepG2 cells assessed as dead cells at 0.5 uM after 24 hrs using annexin-V and propidium iodide staining by flow cytometry; assay type: functional
[34] = tested on: HepG2; test: Induction of apoptosis in human HepG2 cells assessed as late apoptotic cells at 0.5 uM after 24 hrs using annexin-V and propidium iodide staining by flow cytometry; assay type: functional
[35] = tested on: HepG2; test: Induction of apoptosis in human HepG2 cells assessed as early apoptotic cells at 0.5 uM after 24 hrs using annexin-V and propidium iodide staining by flow cytometry; assay type: functional
[36] = tested on: HepG2; test: Induction of apoptosis in human HepG2 cells assessed as viable cells at 0.5 uM after 24 hrs using annexin-V and propidium iodide staining by flow cytometry; assay type: functional; settings: HepG2, 24 h, read-out: Activity
[37] = tested on: HepG2; test: Induction of apoptosis in human HepG2 cells assessed as dead cells at 1 uM after 24 hrs using annexin-V and propidium iodide staining by flow cytometry; assay type: functional
[38] = tested on: HepG2; test: Induction of apoptosis in human HepG2 cells assessed as late apoptotic cells at 1 uM after 24 hrs using annexin-V and propidium iodide staining by flow cytometry; assay type: functional
[39] = tested on: HepG2; test: Induction of apoptosis in human HepG2 cells assessed as early apoptotic cells at 1 uM after 24 hrs using annexin-V and propidium iodide staining by flow cytometry; assay type: functional
[40] = tested on: HepG2; test: Induction of apoptosis in human HepG2 cells assessed as viable cells at 1 uM after 24 hrs using annexin-V and propidium iodide staining by flow cytometry; assay type: functional; settings: HepG2, 24 h, read-out: Activity
[41] = tested on: HepG2; test: Induction of apoptosis in human HepG2 cells assessed as dead cells at 2 uM after 24 hrs using annexin-V and propidium iodide staining by flow cytometry; assay type: functional
[42] = tested on: HepG2; test: Induction of apoptosis in human HepG2 cells assessed as late apoptotic cells at 2 uM after 24 hrs using annexin-V and propidium iodide staining by flow cytometry; assay type: functional
[43] = tested on: HepG2; test: Induction of apoptosis in human HepG2 cells assessed as early apoptotic cells at 2 uM after 24 hrs using annexin-V and propidium iodide staining by flow cytometry; assay type: functional
[44] = tested on: HepG2; test: Induction of apoptosis in human HepG2 cells assessed as viable cells at 2 uM after 24 hrs using annexin-V and propidium iodide staining by flow cytometry; assay type: functional; settings: HepG2, 24 h, read-out: Activity
[45] = tested on: HepG2; test: Induction of apoptosis in human HepG2 cells assessed as increase in bax expression at 0.5 to 2 uM after 24 hrs; assay type: functional, cell-based
[46] = tested on: HepG2; test: Induction of apoptosis in human HepG2 cells assessed as decrease in procaspase-3 expression at 0.5 to 2 uM after 24 hrs; assay type: functional, cell-based
[47] = tested on: HepG2; test: Induction of apoptosis in human HepG2 cells assessed as increase in active caspase-3 expression at 0.5 to 2 uM after 24 hrs; assay type: functional, cell-based

Structure (SMILES)	IC50 [1] [µM]	IC50 [2] [µM]	IC50 [3] [µM]	IC50 [4] [µM]	Activity [5]	Activity [6]	Activity [7]	Activity [8]	Activity [9]	Activity [10]	Activity [11]	Activity [12]	Activity [13]	Activity [14]	Activity [15]	Activity [16]	Activity [17]	Activity [18]	other results
COC(=O)/C(C)=C\C[C@@]12OC(C)(C)[C@@H]3C[C@@H](C=C4C(=O)c5c(O)c6c(c(CC=C(C)C)c5O[C@]431)O[C@]1(C)CCC(=C(C)C)C6C1)C2=O	1.96	1.45	2.15	1.88	Active	Active	Active	Active	Active	Active	Active	Active	Active	Active	Active	Active	Active	Active	Activity [19]: 0.4%; Activity [20]: 4%; Activity [21]: 5.7%; viability at 1.25 µM [22]: 89.8%; Activity [23]: 1.4%; Activity [24]: 4.1%; Activity [25]: 13.6%; viability at 2.5 µM [26]: 80.9%; Activity [27]: 1.8%; Activity [28]: 4.4%; Activity [29]: 20.7%; viability at 5 µM [30]: 73.2%; Activity [31]: Active; Activity [32]: Active
CC(C)=CCC[C@]1(C)C=Cc2c(O)c3c(c(CC=C(C)C)c2O1)O[C@]12C(=C[C@@H]4C[C@H]1C(C)(C)O[C@@]2(C/C=C(/C)C(=O)O)C4=O)C3=O [GAMBOGIC ACID]	2.4	1.54	1.47	0.5	–	–	–	–	–	–	–	–	–	–	–	–	–	–	–
COC(=O)/C(C)=C\C[C@@]12OC(C)(C)[C@@H]3C[C@@H](C=C4C(=O)c5c(O)c6c(c(CC=C(C)C)c5O[C@]431)O[C@](C)(CCC=C(C)C)C=C6)C2=O [METHYL GAMBOGATE]	2.53	1.24	0.79	0.52	–	–	–	–	–	–	–	–	–	–	–	–	–	–	–
COC(=O)/C(C)=C\C[C@@]12OC(C)(C)[C@@H]3C[C@@H](C=C4C(=O)c5c(O)c(C6C[C@](C)(OC)CCC6=C(C)C)c6c(c5O[C@]431)CCC(C)(C)O6)C2=O (stereo partly drawn)	1.53	2.01	1.51	1.24	Active	Active	Active	Active	Active	Active	Active	Active	Active	Active	Active	Active	Active	Active	Activity [33]: 0.3%; Activity [34]: 1.3%; Activity [35]: 4.3%; viability at 0.5 µM [36]: 94%; Activity [37]: 0.9%; Activity [38]: 2.5%; Activity [39]: 12.9%; viability at 1 µM [40]: 83.7%; Activity [41]: 3.4%; Activity [42]: 8.1%; Activity [43]: 35%; viability at 2 µM [44]: 53.6%; Activity [45]: Active; Activity [46]: Active; Activity [47]: Active

Reference: ChEMBL document CHEMBL1156204, “Spectacular modification of Gambogic acid on microwave irradiation in methanol: isolation and structure identification of two products with potent anti-tumor activity” (Bioorg Med Chem Lett, 2010)
